Reference: US20220281848A1, “PYRAZOLE-SUBSTITUTED PYRROLIDINONES AS HERBICIDES” (FMC Corporation, priority 2019, published 2022)

Tests used:
Assay type in all cases: in vivo
Conditions in all cases: after 13 d
[1] = test system: redroot pigweed (Amaranthus retroflexus, AMARE); assay: Test A pre-emergence, redroot pigweed
Outline: (§1)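 Seeds were sown in standard soil in pots, kept one day in a glasshouse (24/16° C. day/night, 14 h light, 65% humidity), then sprayed with compound in acetone/water (50:50) containing 0.5% Tween 20 at 15.625, 62.5 or 250 g/ha. Plants grew on under the same conditions, watered twice daily, and damage was scored after 13 d (0 = none, 100 = total).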

[2] = test system: ivy-leaved morning glory (Ipomoea hederacea, IPOHE); assay: Test A post-emergence, ivy-leaved morning glory
Outline: (§2)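 Visual damage at 13 d after treatment, rated from 0 (no damage) to 100 (total damage). Eight-day-old pot-grown plants had been sprayed with 15.625, 62.5 or 250 g/ha of compound in aqueous acetone (50:50) containing 0.5% Tween 20.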

corn (Zea mays, ZEAMX) [3] = assay: Test A post-emergence, corn
Outline: as §2

[4] = test system: barnyardgrass (Echinochloa crus-galli, ECHCG); assay: Test A post-emergence, barnyardgrass
Outline: as §2

[5] = test system: giant foxtail (Setaria faberi, SETFA); assay: Test A pre-emergence, giant foxtail
Outline: as §1

corn (Zea mays, ZEAMX) [6] = assay: Test A pre-emergence, corn
Outline: as §1

[7] = test system: velvetleaf (Abutilon theophrasti, ABUTH); assay: Test A post-emergence, velvetleaf
Outline: as §2

[8] = test system: ivy-leaved morning glory (Ipomoea hederacea, IPOHE); assay: Test A pre-emergence, ivy-leaved morning glory
Outline: as §1

[9] = test system: barnyardgrass (Echinochloa crus-galli, ECHCG); assay: Test A pre-emergence, barnyardgrass
Outline: as §1

[10] = test system: velvetleaf (Abutilon theophrasti, ABUTH); assay: Test A pre-emergence, velvetleaf
Outline: as §1

[11] = test system: giant foxtail (Setaria faberi, SETFA); assay: Test A post-emergence, giant foxtail
Outline: as §2

[12] = test system: redroot pigweed (Amaranthus retroflexus, AMARE); assay: Test A post-emergence, redroot pigweed
Outline: as §2

SMILES | damage to plant (100=total damage; 0=no damage) AMARE ([1]; Pre-Emergence at 15.625 g/ha) | damage to plant (100=total damage; 0=no damage) AMARE ([1]; Pre-Emergence at 62.5 g/ha) | damage to plant (100=total damage; 0=no damage) AMARE ([1]; Pre-Emergence at 250 g/ha) | damage to plant (100=total damage; 0=no damage) IPOHE ([2]; Post-Emergence at 15.625 g/ha) | damage to plant (100=total damage; 0=no damage) IPOHE ([2]; Post-Emergence at 62.5 g/ha) | damage to plant (100=total damage; 0=no damage) IPOHE ([2]; Post-Emergence at 250 g/ha) | damage to plant (100=total damage; 0=no damage) ZEAMX (corn (Zea mays, ZEAMX) [3]; Post-Emergence at 15.625 g/ha) | damage to plant (100=total damage; 0=no damage) ZEAMX (corn (Zea mays, ZEAMX) [3]; Post-Emergence at 62.5 g/ha) | damage to plant (100=total damage; 0=no damage) ZEAMX (corn (Zea mays, ZEAMX) [3]; Post-Emergence at 250 g/ha) | damage to plant (100=total damage; 0=no damage) ECHCG ([4]; Post-Emergence at 15.625 g/ha) | damage to plant (100=total damage; 0=no damage) ECHCG ([4]; Post-Emergence at 62.5 g/ha) | damage to plant (100=total damage; 0=no damage) ECHCG ([4]; Post-Emergence at 250 g/ha) | damage to plant (100=total damage; 0=no damage) SETFA ([5]; Pre-Emergence at 15.625 g/ha) | damage to plant (100=total damage; 0=no damage) SETFA ([5]; Pre-Emergence at 62.5 g/ha) | damage to plant (100=total damage; 0=no damage) SETFA ([5]; Pre-Emergence at 250 g/ha) | damage to plant (100=total damage; 0=no damage) ZEAMX (corn (Zea mays, ZEAMX) [6]; Pre-Emergence at 15.625 g/ha) | damage to plant (100=total damage; 0=no damage) ZEAMX (corn (Zea mays, ZEAMX) [6]; Pre-Emergence at 62.5 g/ha) | damage to plant (100=total damage; 0=no damage) ZEAMX (corn (Zea mays, ZEAMX) [6]; Pre-Emergence at 250 g/ha) | damage to plant (100=total damage; 0=no damage) ABUTH ([7]; Post-Emergence at 15.625 g/ha) | damage to plant (100=total damage; 0=no damage) ABUTH ([7]; Post-Emergence at 62.5 g/ha) | other results
CN1CC(c2nn(C)c(Cl)c2Br)C(C(=O)Nc2ccc(F)c(F)c2F)C1=O (racemic) [Compound 32] | 0 | 0 | 0 | 0 | 0 | 10 | 0 | 0 | 10 | 10 | 40 | 80 | 20 | 60 | 90 | 0 | 10 | 10 | 0 | 0 | damage to plant (100=total damage; 0=no damage) ABUTH ([7]; Post-Emergence at 250 g/ha): 0; damage to plant (100=total damage; 0=no damage) IPOHE ([8]; Pre-Emergence at 15.625 g/ha): 0; damage to plant (100=total damage; 0=no damage) IPOHE ([8]; Pre-Emergence at 62.5 g/ha): 0; damage to plant (100=total damage; 0=no damage) IPOHE ([8]; Pre-Emergence at 250 g/ha): 10; damage to plant (100=total damage; 0=no damage) ECHCG ([9]; Pre-Emergence at 15.625 g/ha): 30; damage to plant (100=total damage; 0=no damage) ECHCG ([9]; Pre-Emergence at 62.5 g/ha): 50; damage to plant (100=total damage; 0=no damage) ECHCG ([9]; Pre-Emergence at 250 g/ha): 70; damage to plant (100=total damage; 0=no damage) ABUTH ([10]; Pre-Emergence at 15.625 g/ha): 0; damage to plant (100=total damage; 0=no damage) ABUTH ([10]; Pre-Emergence at 62.5 g/ha): 0; damage to plant (100=total damage; 0=no damage) ABUTH ([10]; Pre-Emergence at 250 g/ha): 0; damage to plant (100=total damage; 0=no damage) SETFA ([11]; Post-Emergence at 15.625 g/ha): 20; damage to plant (100=total damage; 0=no damage) SETFA ([11]; Post-Emergence at 62.5 g/ha): 60; damage to plant (100=total damage; 0=no damage) SETFA ([11]; Post-Emergence at 250 g/ha): 80; damage to plant (100=total damage; 0=no damage) AMARE ([12]; Post-Emergence at 15.625 g/ha): 0; damage to plant (100=total damage; 0=no damage) AMARE ([12]; Post-Emergence at 62.5 g/ha): 0; damage to plant (100=total damage; 0=no damage) AMARE ([12]; Post-Emergence at 250 g/ha): 0
CN1C[C@H](c2nn(C)c3c(Cl)cccc23)[C@@H](C(=O)Nc2cccc(F)c2F)C1=O [Compound 5] | 0 | 0 | 30 | 0 | 0 | 0 | 0 | 0 | 0 | 0 | 60 | 80 | 0 | 30 | 80 | 0 | 0 | 0 | 0 | 0 | damage to plant (100=total damage; 0=no damage) ABUTH ([7]; Post-Emergence at 250 g/ha): 0; damage to plant (100=total damage; 0=no damage) IPOHE ([8]; Pre-Emergence at 15.625 g/ha): 0; damage to plant (100=total damage; 0=no damage) IPOHE ([8]; Pre-Emergence at 62.5 g/ha): 0; damage to plant (100=total damage; 0=no damage) IPOHE ([8]; Pre-Emergence at 250 g/ha): 0; damage to plant (100=total damage; 0=no damage) ECHCG ([9]; Pre-Emergence at 15.625 g/ha): 0; damage to plant (100=total damage; 0=no damage) ECHCG ([9]; Pre-Emergence at 62.5 g/ha): 20; damage to plant (100=total damage; 0=no damage) ECHCG ([9]; Pre-Emergence at 250 g/ha): 80; damage to plant (100=total damage; 0=no damage) ABUTH ([10]; Pre-Emergence at 15.625 g/ha): 0; damage to plant (100=total damage; 0=no damage) ABUTH ([10]; Pre-Emergence at 62.5 g/ha): 0; damage to plant (100=total damage; 0=no damage) ABUTH ([10]; Pre-Emergence at 250 g/ha): 10; damage to plant (100=total damage; 0=no damage) SETFA ([11]; Post-Emergence at 15.625 g/ha): 10; damage to plant (100=total damage; 0=no damage) SETFA ([11]; Post-Emergence at 62.5 g/ha): 50; damage to plant (100=total damage; 0=no damage) SETFA ([11]; Post-Emergence at 250 g/ha): 80; damage to plant (100=total damage; 0=no damage) AMARE ([12]; Post-Emergence at 15.625 g/ha): 0; damage to plant (100=total damage; 0=no damage) AMARE ([12]; Post-Emergence at 62.5 g/ha): 0; damage to plant (100=total damage; 0=no damage) AMARE ([12]; Post-Emergence at 250 g/ha): 0
